Literature values, collected in paper PMC8674134, “Safety and efficacy of avapritinib in advanced systemic mastocytosis: the phase 1 EXPLORER trial” (Nature Medicine, 2021).

Key:
[1] = system: KIT D816V; set-up: method as in PMID 16779792, PMID 15166033, PMID 19193436; conditions: cited from earlier work
[2] = system: advanced systemic mastocytosis (AdvSM); set-up: method as in PMID 32392175; conditions: post hoc exploratory analysis of pivotal phase 2 study; cited from earlier work
[3] = system: mast cell leukemia (MCL); set-up: method as in PMID 27355533; conditions: patients with MCL; 95% CI, 6–54%; cited from earlier work

Compound	Activity against KIT D816V [1]	CR rate by IWG-MRT-ECNM criteria [2] [%]	Responses by IWG-MRT-ECNM criteria, patients [2] [%]	24-month OS [3] [%]
Cc1ccc(NC(=O)c2ccc(CN3CCN(C)CC3)cc2)cc1Nc1nccc(-c2cccnc2)n1 [Imatinib]	lacks activity	–	–	–
CO[C@@H]1[C@H](N(C)C(=O)c2ccccc2)C[C@H]2O[C@]1(C)n1c3ccccc3c3c4c(c5c6ccccc6n2c5c31)C(=O)NC4 [midostaurin]	–	2	28	26
